Data from US8114865B2, “Indazole derivatives as kinase inhibitors for the treatment of cancer” (Nerviano Medical Sciences S.R.L., priority 2006, dated 2012).

Legend:
[1] = target: T1, Aurora-2 (Homo sapiens, UniProt O14965); experiment: Biochemical assay for inhibitors of Aurora-2 kinase activity; details: read-out: Aur2 IC50
T1 sequence (O14965 1-403): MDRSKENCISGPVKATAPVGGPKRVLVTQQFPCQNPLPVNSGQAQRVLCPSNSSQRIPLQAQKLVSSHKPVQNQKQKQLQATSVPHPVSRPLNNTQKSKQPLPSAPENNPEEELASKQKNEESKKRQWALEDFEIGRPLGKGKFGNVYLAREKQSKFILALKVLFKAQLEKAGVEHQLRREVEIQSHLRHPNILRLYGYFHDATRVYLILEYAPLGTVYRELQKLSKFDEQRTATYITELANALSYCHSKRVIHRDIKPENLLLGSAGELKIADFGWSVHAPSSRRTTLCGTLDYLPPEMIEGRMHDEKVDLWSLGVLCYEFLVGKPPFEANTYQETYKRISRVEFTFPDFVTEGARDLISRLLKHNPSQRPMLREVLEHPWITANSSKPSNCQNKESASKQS
Method: The in vitro kinase inhibition assay was conducted mimilarly as described for IGF-1R.
The kinase buffer was composed of 50 mM HEPES, pH 7.0, 10 mM MgCl2, 1 mM DTT, 3 microM Na3VO4, and 0.2 mg/mL BSA.
The kinase assay was run with an enzyme concentration of 2.5 nM, 10 microM ATP, 1 nM ^33P-γ-ATP, and 8 microM substrate, composed of 4 LRRWSLG repeats.

[2] = test system: IGF1-induced S6 phosphorylation; experiment: Growth factor induced S6 ribosomal protein phosphorylation in primary human fibroblasts; assay type: cell-based; details: normal human dermal fibroblasts (NHDF), 10 nM IGF-1
Method: Phosphorylation of S6 ribosomal protein in response to growth factor stimulation of normal human dermal fibroblasts (NHDF) was used to assess compound potency in inhibiting IGF-1 induced signal transduction in cells, and selectivity towards EGF and PDGF stimulus. NHDF cells obtained from PromoCell (Heidelberg, Germany), were maintained at 37° C. in a humidified atmosphere with 5% CO2 in complete Fibroblast Growth Medium (PromoCell). For assay, NHDF were seeded in 384-well tissue culture plates (clear- and flat-bottomed black plates; Matrix Technologies Inc., Hudson, N.H., USA) at a density of 5000 cells/well in serum-free medium containing 0.1% bovine serum albumin (BSA) and incubated for 5 days. Starved cells were treated for 1 hour with desired doses of compounds and then stimulated for a further 2 hours with either 10 nM IGF-1 (Invitrogen Corp., CA, USA), 10 nM EGF (Gibco BRL, USA) or 1 nM PDGF-B/B (Roche Diagnostics GmbH, Germany). Cells were then fixed in PBS/3.7% paraformaldehyde for 20 minutes at room temperature, washed ×2 with PBS, and permeabilized with PBS/0.3% Triton X-100 for 15 minutes. Wells were then saturated with PBS/1% non-fat dry milk (Bio-Rad Laboratories, Hercules, Calif., USA) for 1 hour, and then probed for 1 hour at 37° C. with anti-phospho-S6 (Ser 235/236) antibody (Cell Signaling Technology, Beverly, Mass., USA, cat. #2211) at 1/200 dilution in PBS/1% milk/0.3% Tween 20. Wells were then washed twice with PBS, and incubated for 1 hour at 37° C. with PBS/1% milk/0.3% Tween 20+1 microg/mL DAPI (4,6-diamidino-2-phenylindole)+ 1/500 Goat anti-rabbit Cy5™-conjugated secondary antibody (Amersham Biosciences, Little Chalfont, Buckinghamshire, UK). […] Fluorescence images in the DAPI and Cy5™ channels were automatically acquired, stored and analysed using a Cellomics ArrayScan™ IV instrument (Cellomics, Pittsburgh, USA); the Cellomics Cytotoxicity Algorithm was used to quantify cytoplasmic fluorescence associated with phospho-S6 (Cy5™ signal parameter: “Mean Lyso Mass-pH”) for each cell in 10 fields/well, and eventually expressed as a mean population value. […]

[3] = target: T2, ALK (Homo sapiens, UniProt Q9UM73); experiment: Biochemical assay for inhibitors of ALK kinase activity
T2 construct: ALK cytoplasmic domain, corresponding to residues 1060-1620; made in house; host or cells: Sf21 insect cells (baculovirus)
Text: ALK cytoplasmic domain, corresponding to residues 1060-1620 (the numbers of the amino acid residues refer to the Genbank accession number NP 004295.2) was PCR amplified from a human testis cDNA library.
For cloning purposes, the oligonucleotides included attB sites in order to obtain an attB-flanked PCR product suitable for cloning using the Gateway technology (Invitrogen). Furthermore, for purification purposes, forward primer included a PreScission cleavage site (Amersham Biosciences). The resulting PCR product was cloned in the baculovirus expression vector pVL1393 (Invitrogen), Gateway-modified. For expression and purification purposes, a GST tag was added N-terminal to the ALK cytoplasmic domain. Cloning was performed according to the protocols described in the Gateway manual (Invitrogen).
Baculovirus was generated by cotransfecting Sf9 insect cells with expression vector and the viral DNA using the BaculoGold™ transfection kit (Pharmingen).
Recombinant protein was produced by infecting Sf21 insect cells at the density of 1×10^6 cells/mL with 30 mL viral supernatant per billion cells with shaking at 27° C. After 48 hours of infections the cells were recovered, pelleted and frozen at −80° C.
Cells were resuspended in lysis buffer (Tris-HCl 50 mM pH8, NaCl 150 mM, CHAPS 0.2%, DTT 20 mM, glycerol 20%, “Complete” protease inhibitor cocktail (Roche Diagnostics), Na3VO4 1 mM and lysed by liquid extrusion with a Gaulin homogenizer (Niro Soavi Italy). The lysate was cleared by centrifugation at 20000 g for 30 minutes and loaded on a Glutathione Sepharose 4B (Amersham Biosciences) column.
After extensive wash, recombinant protein was eluted with 10 mM Glutathione in 100 mM Tris-HCl pH8, 10% glycerol.
Affinity purified GST-ALK was loaded on a Heparin Sepharose™ FF (Amersham Biosciences) column and eluted with 50 mM NaCl, 25 mM TRIS pH 7.5, 2 mM DTT, 20% glycerol.
The eluted fractions were pooled and dialyzed against 150 mM NaCl, 50 mM Tris-HCl pH 7.4, 2 mM DTT, 20% glycerol.
The in vitro kinase inhibition assay was conducted in the same way as described for IGF-1R. […]

T2 sequence (Q9UM73 1060-1620): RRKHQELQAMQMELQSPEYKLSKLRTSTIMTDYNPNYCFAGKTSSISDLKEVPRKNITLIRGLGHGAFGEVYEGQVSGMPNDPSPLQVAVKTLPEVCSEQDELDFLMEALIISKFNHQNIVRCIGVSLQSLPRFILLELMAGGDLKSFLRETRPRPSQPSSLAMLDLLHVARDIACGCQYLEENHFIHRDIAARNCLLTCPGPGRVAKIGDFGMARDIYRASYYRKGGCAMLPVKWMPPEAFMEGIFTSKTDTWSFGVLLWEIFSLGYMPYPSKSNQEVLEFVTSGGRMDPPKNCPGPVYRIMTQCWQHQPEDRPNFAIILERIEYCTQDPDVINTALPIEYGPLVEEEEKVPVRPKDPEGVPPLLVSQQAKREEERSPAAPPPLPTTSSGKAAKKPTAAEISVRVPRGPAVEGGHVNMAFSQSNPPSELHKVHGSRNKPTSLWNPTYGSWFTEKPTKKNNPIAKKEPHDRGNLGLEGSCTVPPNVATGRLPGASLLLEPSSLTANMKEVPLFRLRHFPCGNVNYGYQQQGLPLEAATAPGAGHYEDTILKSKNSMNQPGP

| Structure (SMILES) | IC50 [1] [µM] | IC50 [2] [µM] | IC50 [3] [µM] |
| --- | --- | --- | --- |
| CN1CCN(c2ccc(C(=O)Nc3n[nH]c4ccc(S(=O)(=O)c5ccccc5)cc34)cc2)CC1 [Compound 1, N-(5-Benzenesulfonyl-1H-indazol-3-yl)-4-(4-methyl-piperazin-1-yl)-benzamide] | 0.026 | > 10 | 0.34 |
| CN1CCN(c2ccc(C(=O)Nc3n[nH]c4ccc(S(=O)(=O)c5ccccc5)cc34)c(NC(=O)[C@@H]3CCCO3)c2)CC1 [Compound 36, (S)-Tetrahydro-furan-2-carboxylic acid [2-(5-benzenesulfonyl-1H-indazol-3-ylcarbamoyl)-5-(4-methyl-piperazin-1-yl)-phenyl]-amide] | 0.019 | 1.2 | 0.17 |
| CN1CCN(c2ccc(C(=O)Nc3n[nH]c4ccc(S(=O)(=O)c5ccccc5)cc34)c(NC(=O)c3ccc[nH]3)c2)CC1 [Compound 33, 1H-pyrrole-2-carboxylic acid [2-(5-benzenesulfonyl-1H-indazol-3-ylcarbamoyl)-5-(4-methyl-piperazin-1-yl)-phenyl]amide] | 0.009 | 0.27 | 0.034 |
